Source: US8076338B2, “Kinase modulators and methods of use” (Exelixis, Inc., priority 2004, dated 2011)
Where two headings read alike, the source gives them in different places.

How the values were obtained:
[1] = target: p70S6K (Homo sapiens, UniProt P23443); assay: Luciferase-coupled chemiluminescence kinase assay (ATP consumption); type: biochemical
Method in brief: (§1)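 Activity is read as ATP depletion: luciferase-luciferin reagent added after a 3 h ambient-temperature kinase reaction, with total ATP use limited to 25-60%. Before ATP addition, 2.5-5 nM kinase and compound were preincubated 30 min in Tris pH 7.5/MgCl2/TX-100/DTT buffer; […].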

[2] = target: AktK (Homo sapiens, UniProt P31749); assay: as above; type: biochemical; settings: read-out: AKT-1 IC50
Chain of AktK (P31749 whole entry): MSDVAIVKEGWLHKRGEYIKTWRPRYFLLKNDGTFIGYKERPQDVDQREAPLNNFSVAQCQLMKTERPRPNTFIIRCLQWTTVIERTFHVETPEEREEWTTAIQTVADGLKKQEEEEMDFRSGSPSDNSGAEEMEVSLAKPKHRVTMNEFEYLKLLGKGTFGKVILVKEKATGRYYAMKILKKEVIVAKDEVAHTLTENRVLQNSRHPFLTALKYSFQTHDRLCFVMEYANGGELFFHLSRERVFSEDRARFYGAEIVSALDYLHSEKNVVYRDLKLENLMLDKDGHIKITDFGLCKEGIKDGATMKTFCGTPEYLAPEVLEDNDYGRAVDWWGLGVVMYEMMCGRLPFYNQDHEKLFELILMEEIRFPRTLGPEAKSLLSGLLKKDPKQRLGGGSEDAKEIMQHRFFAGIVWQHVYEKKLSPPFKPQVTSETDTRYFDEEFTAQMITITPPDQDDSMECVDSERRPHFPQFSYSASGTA
Method in brief: as §1

Chain of p70S6K (P23443 whole entry): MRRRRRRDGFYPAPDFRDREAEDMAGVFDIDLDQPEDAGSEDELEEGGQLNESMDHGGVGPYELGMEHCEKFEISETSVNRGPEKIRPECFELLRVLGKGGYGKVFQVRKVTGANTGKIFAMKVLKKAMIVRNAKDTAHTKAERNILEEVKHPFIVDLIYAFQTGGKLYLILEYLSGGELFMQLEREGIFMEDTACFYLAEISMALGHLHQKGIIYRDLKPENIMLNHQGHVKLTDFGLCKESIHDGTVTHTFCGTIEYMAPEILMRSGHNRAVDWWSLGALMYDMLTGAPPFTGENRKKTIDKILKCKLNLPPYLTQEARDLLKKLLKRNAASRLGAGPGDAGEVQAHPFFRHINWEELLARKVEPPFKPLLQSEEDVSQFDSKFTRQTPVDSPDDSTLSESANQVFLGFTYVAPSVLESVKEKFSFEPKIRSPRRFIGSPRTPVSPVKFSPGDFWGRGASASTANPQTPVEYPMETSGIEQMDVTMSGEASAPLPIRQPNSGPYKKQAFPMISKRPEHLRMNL

Row | Molecule | IC50 ([1]; Table 1, class symbols per key) | IC50 ([2]; Table 1, class symbols per key) | IC50 [1] | IC50 [2]
1 | Cc1c(NCCN2CCCC2)cc(Cl)cc1N1CCN(c2ncnc3[nH]nc(C4CC4)c23)CC1 [Entry 161, 5-chloro-3-[4-(3-cyclopropyl-1H-pyrazolo[3,4-d]pyrimidin-4-yl)piperazin-1-yl]-2-methyl-N-(2-pyrrolidin-1-ylethyl)aniline] | < 100 nM | 100 to 1000 nM |  | 
2 | Clc1ccc(N2CCN(c3ncnc4[nH]nc(Br)c34)CC2)cc1Cl [Entry 75, 3-bromo-4-[4-(3,4-dichlorophenyl)piperazin-1-yl]-1H-pyrazolo[3,4-d]pyrimidine] | 100 to 1000 nM | ≥ 10000 nM |  | 
3 | COc1ccc(-c2n[nH]c3ncnc(N4CCN(c5cc(Cl)ccc5C)CC4)c23)cc1 [Entry 356, 4-[4-(5-chloro-2-methylphenyl)piperazin-1-yl]-3-[4-(methyloxy)phenyl]-1H-pyrazolo[3,4-d]pyrimidine] |  |  | 100 to 1000 nM | 1000 to 10000 nM
4 | FC(F)(F)c1ccccc1N1CCN(c2ncnc3[nH]nc(Br)c23)CC1 [Entry 151, 3-bromo-4-{4-[2-(trifluoromethyl)phenyl]piperazin-1-yl}-1H-pyrazolo[3,4-d]pyrimidine] | 100 to 1000 nM | ≥ 10000 nM |  | 
5 | Cc1c(NCCN2CCCC2)cc(OCC(F)(CF)CF)cc1N1CCN(c2ncnc3[nH]nc(Br)c23)CC1 [Entry 230, 3-[4-(3-bromo-1H-pyrazolo[3,4-d]pyrimidin-4-yl)piperazin-1-yl]-5-{[2,3-difluoro-2-(fluoro-methyl)propyl]oxy}-2-methyl-N-(2-pyrrolidin-1-ylethyl)aniline] | < 100 nM | < 100 nM |  | 
6 | Cc1c(NCCN2CCCC2)cc(-c2nc(-c3ccccc3)no2)cc1N1CCN(c2ncnc3[nH]nc(Br)c23)CC1 [Entry 241, 3-[4-(3-bromo-1H-pyrazolo[3,4-d]pyrimidin-4-yl)piperazin-1-yl]-2-methyl-5-(3-phenyl-1,2,4-oxadiazol-5-yl)-N-(2-pyrrolidin-1-ylethyl)aniline] | < 100 nM | 1000 to 10000 nM |  | 
7 | Cc1c(NCCN(C)C)cc(C(=O)Nc2ccccc2)cc1N1CCN(c2ncnc3[nH]nc(Br)c23)CC1 [Entry 225, 3-[4-(3-bromo-1H-pyrazolo[3,4-d]pyrimidin-4-yl)piperazin-1-yl]-5-{[2-(dimethylamino)eth-yl]amino}-4-methyl-N-phenylbenzamide] | < 100 nM | < 100 nM |  | 
8 | Cc1c(NCCN2CCCC2)cc(-c2nccs2)cc1N1CCN(c2ncnc3[nH]nc(Br)c23)CC1 [Entry 233, 3-[4-(3-bromo-1H-pyrazolo[3,4-d]pyrimidin-4-yl)piperazin-1-yl]-2-methyl-N-(2-pyrrolidin-1-ylethyl)-5-(1,3-thiazol-2-yl)aniline] | < 100 nM | < 100 nM |  | 
9 | Cc1ccc(Cl)cc1N1CCN(c2nc(-c3ccccc3)nc3[nH]nc(C)c23)CC1 [Entry 322, 4-[4-(5-chloro-2-methylphenyl)piperazin-1-yl]-3-methyl-6-phenyl-1H-pyrazolo[3,4-d]pyrimidine] |  |  | 1000 to 10000 nM | 1000 to 10000 nM
10 | Cc1c(CCCN2CCCC2)cc(Cl)cc1N1CCN(c2ncnc3[nH]nc(C#CCO)c23)CC1 [Entry 182, 3-(4-{4-[5-chloro-2-methyl-3-(3-pyrrolidin-1-ylpropyl)phenyl]piperazin-1-yl}-1H-pyrazolo[3,4-d]pyrimidin-3-yl)prop-2-yn-1-ol] | < 100 nM | < 100 nM |  | 
11 | 4-[4-(5-chloro-2-methylphenyl)piperazin-1-yl]-3-(3-pyrrolidin-1-ylpropyl)-1H-pyrazolo[3,4-d]pyrimidine [Entry 400] |  |  | 1000 to 10000 nM | 1000 to 10000 nM
12 | Clc1cccc(N2CCN(c3ncnc4[nH]cnc34)CC2)c1 [Entry 294, 6-[4-(3-chlorophenyl)piperazin-1-yl]-9H-purine] |  |  | 100 to 1000 nM | ≥ 10000 nM
13 | Cc1c(NCCN2CCCC2)cc(C(=O)c2ccccc2)cc1N1CCN(c2ncnc3[nH]nc(Br)c23)CC1 [Entry 236, {3-[4-(3-bromo-1H-pyrazolo[3,4-d]pyrimidin-4-yl)piperazin-1-yl]-4-methyl-5-[(2-pyrrolidin-1-ylethyl)amino]phenyl}(phenyl)methanone] | < 100 nM | < 100 nM |  | 
14 | N#Cc1nccnc1N1CCN(c2ncnc3[nH]nc(Br)c23)CC1 [Entry 110, 3-[4-(3-bromo-1H-pyrazolo[3,4-d]pyrimidin-4-yl)piperazin-1-yl]pyrazine-2-carbonitrile] | 100 to 1000 nM | ≥ 10000 nM |  | 
15 | Clc1cc(NCCN2CCCC2)cc(N2CCN(c3ncnc4[nH]nc(Br)c34)CC2)c1 [Entry 267, 3-[4-(3-bromo-1H-pyrazolo[3,4-d]pyrimidin-4-yl)piperazin-1-yl]-5-chloro-N-(2-pyrrolidin-1-ylethyl)aniline] | < 100 nM | < 100 nM |  | 
16 | FC(F)(F)c1cnc(N2CCN(c3ncnc4[nH]nc(Br)c34)CC2)c(Cl)c1 [Entry 136, 3-bromo-4-{4-[3-chloro-5-(trifluoromethyl)pyridin-2-yl]piperazin-1-yl}-1H-pyrazolo[3,4-d]pyrimidine] | 1000 to 10000 nM | ≥ 10000 nM |  | 
17 | FC(F)(F)c1cccc(N2CCN(c3ncnc4[nH]cnc34)CC2)c1 [Entry 314, 6-{4-[3-(trifluoromethyl)phenyl]piperazin-1-yl}-9H-purine] |  |  | 100 to 1000 nM | ≥ 10000 nM
18 | Cc1c(NCCN2CCCC2)cc(C(=O)N(C)C(C)C)cc1N1CCN(c2ncnc3[nH]nc(Br)c23)CC1 [Entry 210, 3-[4-(3-bromo-1H-pyrazolo[3,4-d]pyrimidin-4-yl)piperazin-1-yl]-N,4-dimethyl-N-(1-methylethyl)-5-[(2-pyrrolidin-1-ylethyl)amino]benzamide] | < 100 nM | 100 to 1000 nM |  | 

Second part, the molecule after the results:

Row | IC50 ([1]; Table 1, class symbols per key) | IC50 ([2]; Table 1, class symbols per key) | IC50 [1] | IC50 [2] | Molecule
19 |  |  | 100 to 1000 nM | 1000 to 10000 nM | CCc1n[nH]c2ncnc(N3CCN(c4cc(Cl)cc(CNCCN(C)C)c4OC)CC3)c12 [Entry 378, N′-{[5-chloro-3-[4-(3-ethyl-1H-pyrazolo[3,4-d]pyrimidin-4-yl)piperazin-1-yl]-2-(methyloxy)phe-nyl]methyl}-N,N-dimethylethane-1,2-diamine]
20 | < 100 nM | 100 to 1000 nM |  |  | CC(C)CCNc1c(F)c(NCCN2CCCC2)nc(N2CCN(c3ncnc4[nH]nc(Br)c34)CC2)c1F [Entry 264, 6-[4-(3-bromo-1H-pyrazolo[3,4-d]pyrimidin-4-yl)piperazin-1-yl]-3,5-difluoro-N~4~-(3-methylbutyl)-N~2~-(2-pyrrolidin-1-ylethyl)pyridine-2,4-diamine]
21 |  |  | < 100 nM | 1000 to 10000 nM | CCc1n[nH]c2ncnc(N3CCN(c4cc(Cl)c(O)cc4C)CC3)c12 [Entry 381, 2-chloro-4-[4-(3-ethyl-1H-pyrazolo[3,4-d]pyrimidin-4-yl)piperazin-1-yl]-5-methylphenol]
22 | < 100 nM | 1000 to 10000 nM |  |  | Cc1ccc(C(=O)NCCN(C)C)cc1N1CCN(c2ncnc3[nH]nc(Br)c23)CC1 [Entry 213, 3-[4-(3-bromo-1H-pyrazolo[3,4-d]pyrimidin-4-yl)piperazin-1-yl]-N-[2-(dimethylamino)ethyl]-4-methylbenzamide]
23 | < 100 nM | 100 to 1000 nM |  |  | Cc1ccc(C(=O)O)cc1N1CCN(c2ncnc3[nH]nc(Br)c23)CC1 [Entry 180, 3-[4-(3-bromo-1H-pyrazolo[3,4-d]pyrimidin-4-yl)piperazin-1-yl]-4-methylbenzoic acid]
24 | < 100 nM | 1000 to 10000 nM |  |  | Cc1c(OCCN2CCCC2)cc(Cl)cc1N1CCN(c2ncnc3[nH]nc(CC(C)C)c23)CC1 [Entry 163, 4-(4-{5-chloro-2-methyl-3-[(2-pyrrolidin-1-ylethyl)oxy]phenyl}piperazin-1-yl)-3-(2-methylpropyl)-1H-pyrazolo[3,4-d]pyrimidine]
25 | 100 to 1000 nM | ≥ 10000 nM |  |  | CCc1n[nH]c2ncnc(N3CCN(c4cc(F)cc(Br)c4Cl)CC3)c12 [Entry 114, 4-[4-(3-bromo-2-chloro-5-fluorophenyl)piperazin-1-yl]-3-ethyl-1H-pyrazolo[3,4-d]pyrimidine]
26 |  |  | 100 to 1000 nM | ≥ 10000 nM | Cc1ccccc1N1CCN(c2ncnc3[nH]ncc23)CC1 [Entry 317, 4-[4-(2-methylphenyl)piperazin-1-yl]-1H-pyrazolo[3,4-d]pyrimidine]
27 |  |  | < 100 nM | 1000 to 10000 nM | COCCOCc1n[nH]c2ncnc(N3CCN(c4cc(Cl)ccc4C)CC3)c12 [Entry 328, 4-[4-(5-chloro-2-methylphenyl)piperazin-1-yl]-3-({[2-(methyloxy)ethyl]oxy}methyl)-1H-pyrazolo[3,4-d]pyrimidine]
28 | < 100 nM | 1000 to 10000 nM |  |  | Cc1c(OCCCN2CCOCC2)cc(Cl)cc1N1CCN(c2ncnc3[nH]nc(C(F)(F)F)c23)CC1 [Entry 40, 4-(4-{5-chloro-2-methyl-3-[(3-morpholin-4-ylpropyl)oxy]phenyl}piperazin-1-yl)-3-(trifluoromethyl)-1H-pyrazolo[3,4-d]pyrimidine]
29 | < 100 nM | 100 to 1000 nM |  |  | CNC(=O)c1cc(NCCN2CCCC2)c(C)c(N2CCN(c3ncnc4[nH]nc(Br)c34)CC2)c1 [Entry 202, 3-[4-(3-bromo-1H-pyrazolo[3,4-d]pyrimidin-4-yl)piperazin-1-yl]-N,4-dimethyl-5-[(2-pyrrolidin-1-ylethyl)amino]benzamide]
30 | 100 to 1000 nM | 1000 to 10000 nM |  |  | Cc1ccc(N2CCN(c3ncnc4[nH]nc(Br)c34)CC2)cc1CCCN1CCCC1 [Entry 67, 3-bromo-4-{4-[4-methyl-3-(3-pyrrolidin-1-ylpropyl)phenyl]piperazin-1-yl}-1H-pyrazolo[3,4-d]pyrimidine]
31 | < 100 nM | 100 to 1000 nM |  |  | Cc1c(OCCCN2CCCCC2)cc(Cl)cc1N1CCN(c2ncnc3[nH]nc(Br)c23)CC1 [Entry 37, 3-bromo-4-(4-{5-chloro-2-methyl-3-[(3-piperidin-1-ylpropyl)oxy]phenyl}piperazin-1-yl)-1H-pyrazolo[3,4-d]pyrimidine]
32 |  |  | 1000 to 10000 nM | 1000 to 10000 nM | Cc1ccc(-c2n[nH]c3ncnc(N4CCN(c5cc(Cl)ccc5C)CC4)c23)cc1 [Entry 341, 4-[4-(5-chloro-2-methylphenyl)piperazin-1-yl]-3-(4-methylphenyl)-1H-pyrazolo[3,4-d]pyrimidine]
